Measured values reported in publication PMC5487684, “Safety, Pharmacokinetics, and Antiviral Activity of a Novel HIV Antiviral, ABX464, in Treatment-Naive HIV-Infected Subjects in a Phase 2 Randomized, Controlled Study” (Antimicrobial Agents and Chemotherapy, 2017).

Test system: HIV-infected subjects
Assay: Safety and tolerability (TEAEs, ECG, laboratory) after repeated oral administration, phase 2a study
Format: in vivo, human
Settings: for Subjects experiencing at least one TEAE: Abdominal pain / Subjects experiencing at least one TEAE: Arthralgia / Subjects experiencing at least one TEAE: Back pain / Subjects experiencing at least one TEAE: Diarrhea / Subjects experiencing at least one TEAE: Flank pain / Subjects experiencing at least one TEAE: Gastrointestinal disorders / Subjects experiencing at least one TEAE: Headache / Subjects experiencing at least one TEAE: Injury, poisoning, and procedural complications / Subjects experiencing at least one TEAE: Musculoskeletal and connective tissue disorders / Subjects experiencing at least one TEAE: Nausea / Subjects experiencing at least one TEAE: Neck pain / Subjects experiencing at least one TEAE: Nervous system disorders / Subjects experiencing at least one TEAE: Pain in extremity / Subjects experiencing at least one TEAE: Sciatica, back pain / Subjects experiencing at least one TEAE: Skin abrasion / Subjects experiencing at least one TEAE: Total / Subjects experiencing at least one TEAE: Upper abdominal pain / Subjects experiencing at least one TEAE: Vomiting: fasted
Experimental: Participants were assigned to one of eight groups; each group (with one exception) included eight subjects receiving either ABX464 (n = 6) or the corresponding placebo (n = 2) according to a randomization code. […] In the present study with HIV-infected subjects, the first dose administered was 25 mg, given once or 3 times a day over a 2- to 3-week period. This initial dose was therefore considered safe for assessment of the safety and tolerability of ABX464 after repeated oral administrations in subjects infected by HIV and determination of the potential effect on the HIV viral load.
The final dosing protocol for each of the eight groups was as follows: group 1, 25 mg every 3 days for 2 to 3 weeks under fasted conditions; group 2, 25 mg once a day (q.d.) for 2 to 3 weeks under fasted conditions; group 3, 50 mg once a day for 2 to 3 weeks under fasted conditions; group 4, 50 mg 3 times a day (t.i.d.) for 4 weeks under fed conditions; group 5, 75 mg once a day for 2 weeks under fed conditions; group 6, 100 mg once a day for 2 to 3 weeks under fasted conditions; group 7, 150 mg every 3 days for 2 to 3 weeks under fed conditions; and group 8, 150 mg once a day for 2 weeks under fed conditions. Per the study protocol, the treatment period was defined as 2 weeks. […] The decision to proceed to the next highest dose was determined by the data and safety monitoring board after review of the laboratory safety data, vital signs, ECGs, and adverse event reports from the group receiving the current dose after 2 weeks of treatment.
Subjects were hospitalized from the day prior to the first dose to at least the morning of day 2. They were orally dosed with 25-mg capsules of ABX464 with 240 ml water under fed or fasted conditions. According to the group, subjects were dosed with 1, 2, 3, 4, or 6 capsules to deliver 25 mg, 50 mg, 75 mg, 100 mg, or 150 mg product, respectively, or the same number of placebo capsules.
Safety assessments and laboratory tests were carried out according to the schedules described in Table S4 for groups dosed every day, every 3 days, and 3 times a day. Follow-up visits were scheduled for 7 days after the last dose and subsequently once every week in order to assess the elimination of the main ABX464 metabolite and to assess the viral load. Follow-up visits were terminated when the virus load was within 0.5 log of the baseline value or after 3 follow-up visits, whichever came first. Prior to the statistical analyses, AEs were coded using the Medical Dictionary for Regulatory Activities (MedDRA dictionary; last available version) in order to be tabulated by system organ class (SOC) and preferred term (PT). The AEs were analyzed according to the treatment emergence phase from the first study drug administration on day 1 up to 48 h after the last study drug administration. The number and percentage of subjects with at least one TEAE were tabulated by SOC and PT for each group and dose. The number of occurrences of TEAEs was also analyzed in the same way by SOC and PT for each group and dose, by grade of severity for each group and dose, and by level of causality to the study drug for each group and dose.

[1] = Group 1 (n = 6), 25 mg every 3 days, Mild
[2] = Group 1 (n = 6), 25 mg every 3 days, Moderate
[3] = Group 2 (n = 6), 25 mg q.d., Mild
[4] = Group 2 (n = 6), 25 mg q.d., Moderate

**Q.** What does the source list for `FC(F)(F)Oc1ccc(Nc2ccc3cccc(Cl)c3n2)cc1` [ABX464]?
**A.** Nausea frequency (75 mg q.d.): 66.7%; Subjects with a skin rash episode (75 mg q.d. under fed conditions, one episode of moderate intensity): two; Subjects with vomiting episodes (150 mg every 3 days): 50.0%; Nausea frequency (150 mg q.d.): 100%; Subjects reporting vomiting (16 subjects overall, no vomiting episodes in placebo): 32%; Severity of adverse events (ABX464 treatment group): mild to moderate; TEAEs leading to treatment discontinuation (ABX464 treatment group): none of the TEAEs led to treatment discontinuation; Subjects reporting at least one episode of headache (ABX464 treatment groups): 56%; Subjects experiencing at least one TEAE: Abdominal pain [1]: 0 (0.0) No. (%); Subjects experiencing at least one TEAE: Arthralgia [1]: 0 (0.0) No. (%); Subjects experiencing at least one TEAE: Back pain [1]: 0 (0.0) No. (%); Subjects experiencing at least one TEAE: Diarrhea [1]: 0 (0.0) No. (%); Subjects experiencing at least one TEAE: Flank pain [1]: 0 (0.0) No. (%); Subjects experiencing at least one TEAE: Gastrointestinal disorders [1]: 2 (33.3) No. (%); Subjects experiencing at least one TEAE: Headache [1]: 0 (0.0) No. (%); Subjects experiencing at least one TEAE: Injury, poisoning, and procedural complications [1]: 0 (0.0) No. (%); Subjects experiencing at least one TEAE: Musculoskeletal and connective tissue disorders [1]: 0 (0.0) No. (%); Subjects experiencing at least one TEAE: Nausea [1]: 1 (16.7) No. (%); Subjects experiencing at least one TEAE: Neck pain [1]: 0 (0.0) No. (%); Subjects experiencing at least one TEAE: Nervous system disorders [1]: 0 (0.0) No. (%); Subjects experiencing at least one TEAE: Pain in extremity [1]: 0 (0.0) No. (%); Subjects experiencing at least one TEAE: Sciatica, back pain [1]: 0 (0.0) No. (%); Subjects experiencing at least one TEAE: Skin abrasion [1]: 0 (0.0) No. (%); Subjects experiencing at least one TEAE: Total [1]: 2 (33.3) No. (%); Subjects experiencing at least one TEAE: Upper abdominal pain [1]: 0 (0.0) No. (%); Subjects experiencing at least one TEAE: Vomiting [1]: 1 (16.7) No. (%); Subjects experiencing at least one TEAE: Abdominal pain [2]: 0 (0.0) No. (%); Subjects experiencing at least one TEAE: Arthralgia [2]: 0 (0.0) No. (%); Subjects experiencing at least one TEAE: Back pain [2]: 0 (0.0) No. (%); Subjects experiencing at least one TEAE: Diarrhea [2]: 0 (0.0) No. (%); Subjects experiencing at least one TEAE: Flank pain [2]: 0 (0.0) No. (%); Subjects experiencing at least one TEAE: Headache [2]: 0 (0.0) No. (%); Subjects experiencing at least one TEAE: Injury, poisoning, and procedural complications [2]: 0 (0.0) No. (%); Subjects experiencing at least one TEAE: Musculoskeletal and connective tissue disorders [2]: 1 (16.7) No. (%); Subjects experiencing at least one TEAE: Nausea [2]: 0 (0.0) No. (%); Subjects experiencing at least one TEAE: Neck pain [2]: 0 (0.0) No. (%); Subjects experiencing at least one TEAE: Nervous system disorders [2]: 0 (0.0) No. (%); Subjects experiencing at least one TEAE: Pain in extremity [2]: 0 (0.0) No. (%); Subjects experiencing at least one TEAE: Sciatica, back pain [2]: 1 (16.7) No. (%); Subjects experiencing at least one TEAE: Skin abrasion [2]: 0 (0.0) No. (%); Subjects experiencing at least one TEAE: Total [2]: 2 (33.3) No. (%); Subjects experiencing at least one TEAE: Upper abdominal pain [2]: 0 (0.0) No. (%); Subjects experiencing at least one TEAE: Vomiting [2]: 0 (0.0) No. (%); Subjects experiencing at least one TEAE: Abdominal pain [3]: 0 (0.0) No. (%); Subjects experiencing at least one TEAE: Arthralgia [3]: 0 (0.0) No. (%); Subjects experiencing at least one TEAE: Back pain [3]: 1 (16.7) No. (%); Subjects experiencing at least one TEAE: Diarrhea [3]: 1 (16.7) No. (%); Subjects experiencing at least one TEAE: Flank pain [3]: 0 (0.0) No. (%); Subjects experiencing at least one TEAE: Gastrointestinal disorders [3]: 2 (33.3) No. (%); Subjects experiencing at least one TEAE: Headache [3]: 1 (16.7) No. (%); Subjects experiencing at least one TEAE: Injury, poisoning, and procedural complications [3]: 0 (0.0) No. (%); Subjects experiencing at least one TEAE: Musculoskeletal and connective tissue disorders [3]: 1 (16.7) No. (%); Subjects experiencing at least one TEAE: Nausea [3]: 0 (0.0) No. (%); Subjects experiencing at least one TEAE: Neck pain [3]: 0 (0.0) No. (%); Subjects experiencing at least one TEAE: Nervous system disorders [3]: 1 (16.7) No. (%); Subjects experiencing at least one TEAE: Pain in extremity [3]: 0 (0.0) No. (%); Subjects experiencing at least one TEAE: Sciatica, back pain [3]: 0 (0.0) No. (%); Subjects experiencing at least one TEAE: Skin abrasion [3]: 0 (0.0) No. (%); Subjects experiencing at least one TEAE: Total [3]: 2 (33.3) No. (%); Subjects experiencing at least one TEAE: Upper abdominal pain [3]: 0 (0.0) No. (%); Subjects experiencing at least one TEAE: Vomiting [3]: 2 (33.3) No. (%); Subjects experiencing at least one TEAE: Abdominal pain [4]: 0 (0.0) No. (%); Subjects experiencing at least one TEAE: Arthralgia [4]: 0 (0.0) No. (%); Subjects experiencing at least one TEAE: Back pain [4]: 0 (0.0) No. (%); Subjects experiencing at least one TEAE: Diarrhea [4]: 0 (0.0) No. (%); Subjects experiencing at least one TEAE: Flank pain [4]: 0 (0.0) No. (%); Subjects experiencing at least one TEAE: Headache [4]: 0 (0.0) No. (%); Subjects experiencing at least one TEAE: Injury, poisoning, and procedural complications [4]: 0 (0.0) No. (%); Subjects experiencing at least one TEAE: Musculoskeletal and connective tissue disorders [4]: 0 (0.0) No. (%); Subjects experiencing at least one TEAE: Nausea [4]: 0 (0.0) No. (%); Subjects experiencing at least one TEAE: Neck pain [4]: 0 (0.0) No. (%); Subjects experiencing at least one TEAE: Nervous system disorders [4]: 0 (0.0) No. (%); Subjects experiencing at least one TEAE: Pain in extremity [4]: 0 (0.0) No. (%); Subjects experiencing at least one TEAE: Sciatica, back pain [4]: 0 (0.0) No. (%); Subjects experiencing at least one TEAE: Skin abrasion [4]: 0 (0.0) No. (%)
